In US8574563B2 (Bristol-Myers Squibb Company, priority 2006, dated 2013):

Tested on: HCV 1b-377-neo replicon cells
Assay: HCV replicon assay, HCV 1b-377-neo replicon cells (1b FRET)
Assay type: cell-based, Hepatitis C virus genotype 1b
Settings: HCV 1b-377-neo replicon cells; HCV 1b genotype
Outline: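 Compounds were tested in genotype 1b subgenomic replicon cells carrying a neomycin marker, alongside a matched replicon line with an NS5A Y2065H substitution that confers resistance to a reference NS5A inhibitor.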

| SMILES | EC50 range against HCV 1b (Table 2, Range) |
| --- | --- |
| O=C(C(c1ccccc1)N1C2CCC1CC2)N1CCC[C@H]1c1ncc(-c2ccc(-c3ccc(-c4cnc([C@@H]5CCCN5C(=O)C(c5ccccc5)N5C6CCC5CC6)[nH]4)cc3)cc2)[nH]1 (stereo partly drawn) [Example M1, 7,7′-(4,4′-biphenyldiylbis(1H-imidazole-5,2-diyl(2S)-2,1-pyrrolidinediyl(2-oxo-1-phenyl-2,1-ethanediyl)))bis(7-azabicyclo[2.2.1]heptane)] | >A |

Same assay, conditions: HCV 1b-377-neo replicon cells; HCV 1b genotype; read-out: EC50 range against HCV 1b (Table 2, Range)

| SMILES | EC50 [nM] |
| --- | --- |
| COC(=O)N[C@@H](C(=O)N1CCC[C@H]1c1ncc(-c2ccc(-c3ccc(-c4cnc([C@@H]5CCCN5C(=O)[C@@H]5C[C@@H]6C[C@@H]6N5)[nH]4)cc3)cc2)[nH]1)c1ccccc1 [Example 83, methyl ((1R)-2-((2)S-2-(5-(4′ (2-((2S)-1-((1S,3S,5S)-2-azabicyclo[3.1.0]hex-3-ylcarbonyl)-2-pyrrolidinyl)-1H-imidazol-5-yl)-4-biphenylyl)-1H-imidazol-2-yl)-1-pyrrolidinyl)-2-oxo-1-phenylethyl)carbamate] | 0.001 to 0.999 |
| COC(=O)N[C@@H](C(=O)N1CCC[C@H]1c1ncc(-c2ccc(-c3ccc(-c4cnc([C@@H]5CCCN5C(=O)C(c5ccc(Cl)cc5)N(C)C)[nH]4)cc3)cc2)[nH]1)c1ccccc1 (stereo partly drawn) [Example 84-58, methyl ((1R)-2-((2S)-2-(5-(4′-(2-((2S)-1-((4-chlorophenyl)(dimethylamino)acetyl)-2-pyrrolidinyl)-1H-imdiazol-5-yl)-4-biphenylyl)-1H-imidazol-2-yl)-1-pyrrolidinyl)-2-oxo-1-phenylethyl)carbamate] | 0.001 to 0.999 |

Same assay, conditions: Hepatitis C virus, HCV 1b-377-neo replicon cells; HCV 1b genotype; read-out: EC50 range against HCV 1b (Table 2, Range)

| SMILES | EC50 [nM] |
| --- | --- |
| COC(=O)N[C@@H](C(=O)N1CCC[C@H]1c1ncc(-c2ccc(-c3ccc(-c4cnc([C@@H]5CCCN5C(=O)[C@@H](c5ccccc5)N5CCCCC5)[nH]4)cc3)cc2)[nH]1)c1ccccc1Cl [Example 28-3, methyl ((1R)-1-(2-chlorophenyl)-2-oxo-2-((2S)-2-(5-(4′-(2-((2S)-1-((2R)-2-phenyl-2-(1-piperidinyl)acetyl)-2-pyrrolidinyl)-1H-imidazol-5-yl)-4-biphenylyl)-1H-imidazol-2-yl)-1-pyrrolidinyl)ethyl)carbamate] | 0.001 to 0.999 |
| COC(=O)N[C@@H](C(=O)N1CCC[C@H]1c1ncc(-c2ccc(-c3ccc(-c4cnc([C@@H]5CCCN5C(=O)[C@H](NC(=O)OC)c5ccccc5Cl)[nH]4)cc3)cc2)[nH]1)c1ccccc1 [Example 107-41, methyl ((1R)-2-((2S)-2-(5-(4′-(2-((2S)-1-((2R)-2-(2-chlorophenyl)-2-((methoxy-carbonyl)amino)acetyl)-2-pyrrolidinyl)-1H-imidazol-5-yl)-4-biphenylyl)-1H-imidazol-2-yl)-1-pyrrolidinyl)-2-oxo-1-phenylethyl) carbamate] | 0.001 to 0.999 |
| COC(=O)N[C@H](C(=O)N1CCC[C@H]1c1ncc(-c2ccc(-c3ccc(-c4nc([C@@H]5CCCN5C(=O)[C@@H](NC(=O)OC)[C@@H](C)OC)[nH]c4CC(OC)OC)cc3)cc2)[nH]1)[C@@H](C)OC [Example J14a, methyl ((1S,2R)-1-(((2S)-2-(4-(2,2-dimethoxyethyl)-5-(4′-(2-((2S)-1-(N-(methoxycarbonyl)-O-methyl-L-threonyl)-2-pyrrolidinyl)-1H-imidazol-4-yl)-4-biphenylyl)-1H-imidazol-2-yl)-1-pyrrolidinyl)carbonyl)-2-methoxypropyl)carbamate] | 0.001 to 0.999 |
| COC(=O)N[C@@H](C(=O)N1CCC[C@H]1c1ncc(-c2ccc(-c3ccc(-c4cnc([C@@H]5CCCN5C(=O)C(c5noc6ccccc56)N(C)C)[nH]4)cc3)cc2)[nH]1)c1ccccc1 (stereo partly drawn) [Example 84-49, methyl ((1R)-2-((2S)-2-(5-(4′-(2-((2S)-1-(1,2-benzisoxazol-3-yl(dimethylamino)acetyl)-2-pyrrolidinyl)-1H-imidazol-5-yl)-4-biphenylyl)-1H-imidazol-2-yl)-1-pyrrolidinyl)-2-oxo-1-phenylethyl)carbamate] | 0.001 to 0.999 |
| COC(=O)N[C@H](C(=O)N1CCC[C@H]1c1ncc(-c2ccc(-c3ccc(-c4cnc([C@@H]5CCCN5C(=O)[C@@H](NC(=O)OC)C(C)(C)O)[nH]4)cc3)cc2)[nH]1)C(C)C [Example M105] | 1 to 99 |
| Cc1cc(CC(=O)N2CCC[C@H]2c2ncc(-c3ccc(-c4ccc(-c5cnc([C@@H]6CCCN6C(=O)[C@@H](c6ccccc6)N6CCCCC6)[nH]5)cc4)cc3)[nH]2)on1 [Example 107-24, 1-((1R)-2-((2S)-2-(5-(4′-(2-((2S)-1-((3-methyl-5-isoxazolyl)acetyl)-2-pyrrolidinyl)-1H-imidazol-5-yl)-4-biphenylyl)-1H-imidazol-2-yl)-1-pyrrolidinyl)-2-oxo-1-phenylethyl) piperidine] | 0.001 to 0.999 |
| CCN(CC)[C@@H](C(=O)N1CCC[C@H]1c1ncc(-c2ccc(-c3ccc(-c4cnc([C@@H]5CCCN5C(=O)[C@H]5CCCC[C@H]5NC(=O)OC)[nH]4)cc3)cc2)[nH]1)c1ccccc1 [cj-94, methyl ((1R,2S)-2-(((2S)-2-(5-(4′-(2-((2S)-1-((2R)-2-(diethylamino)-2-phenylacetyl)-2-pyrrolidinyl)-1H-imidazol-5-yl)-4-biphenylyl)-1H-imidazol-2-yl)-1-pyrrolidinyl)carbonyl)cyclohexyl)carbamate] | 0.001 to 0.999 |
| COC(=O)N[C@H](C(=O)N1[C@@H](C)CC[C@H]1c1ncc(-c2ccc(-c3ccc(-c4cnc([C@@H]5CC[C@H](C)N5C(=O)[C@@H](NC(=O)OC)C(C)C)[nH]4)cc3)cc2)[nH]1)C(C)C [Example M151, methyl ((1S)-1-(((2S,5S)-2-(4-(4′-(2-((2S,5S)-1-((2S)-2-((methoxycarbonyl)amino)-3-methylbutanoyl)-5-methyl-2-pyrrolidinyl)-1H-imidazol-4-yl)-4-biphenylyl)-1H-imidazol-2-yl)-5-methyl-1-pyrrolidinyl)carbonyl)-2-methylpropyl)carbamate] | 0.001 to 0.999 |
| O=C(Cc1cccnc1)N[C@@H](C(=O)N1CCC[C@H]1c1ncc(-c2ccc(-c3ccc(-c4c[nH]c([C@@H]5CCCN5C(=O)[C@H]5CCCO5)n4)cc3)cc2)[nH]1)c1ccccc1 [Example 120-7, N-((1R)-2-oxo-1-phenyl-2-((2S)-2-(5-(4′-(2-((2S)-1-((2R)-tetrahydro-2-furanylcarbonyl)-2-pyrrolidinyl)-1H-imidazol-4-yl)-4-biphenylyl)-1H-imidazol-2-yl)-1-pyrrolidinyl)ethyl)-2-(3-pyridinyl)acetamide] | 0.001 to 0.999 |
| CCN(CC)[C@@H](C(=O)N1CC(F)(F)C[C@H]1c1ncc(-c2ccc(-c3ccc(-c4cnc([C@@H]5CC(F)(F)CN5C(=O)[C@@H](c5ccccc5)N(CC)CC)[nH]4)cc3)cc2)[nH]1)c1ccccc1 [OL-9, (1R,1′R)-2,2′-(4,4′-biphenyldiylbis(1H-imidazole-4,2-diyl((2S)-4,4-difluoro-2,1-pyrrolidinediyl)))bis(N,N-diethyl-2-oxo-1-phenylethanamine)] | 0.001 to 0.999 |
| COC(=O)N[C@@H](C)C(=O)N1CCC[C@H]1c1ncc(-c2ccc(-c3ccc(-c4cnc([C@@H]5CCCN5C(=O)[C@@H](NC(=O)OC)C(C)C)[nH]4)cc3)cc2F)[nH]1 [Example D41, methyl ((1S)-1-(((2S)-2-(5-(3′-fluoro-4′-(2-((2S)-1-(N-(methoxycarbonyl)-L-alanyl)-2-pyrrolidinyl)-1H-imidazol-5-yl)-4-biphenylyl)-1H-imidazol-2-yl)-1-pyrrolidinyl)carbonyl)-2-methylpropyl) carbamate] | 0.001 to 0.999 |
| C[C@@H](c1ncc(-c2ccc(-c3ncc(-c4cnc([C@@H]5CCCN5C(=O)[C@@H](c5ccccc5)N5CCCCC5)[nH]4)cn3)cc2)[nH]1)N(C)C(=O)[C@@H](c1ccccc1)N1CCCCC1 [Example 152j-6, (2R)-N-methyl-2-phenyl-N-((1S)-1-(4-(4-(5-(2-((2S)-1-((2R)-2-phenyl-2-(1-piperidinyl)acetyl)-2-pyrrolidinyl)-1H-imidazol-5-yl)-2-pyrimidinyl)phenyl)-1H-imidazol-2-yl)ethyl)-2-(1-piperidinyl)acetamide] | 0.001 to 0.999 |
| COC(=O)N[C@H](C(=O)N1CCC[C@H]1c1ncc(-c2ccc(-c3ccc(-c4cnc([C@@H]5CCCN5C(=O)[C@@H](NC(=NC#N)N(C)C)C(C)C)[nH]4)cc3)cc2)[nH]1)C(C)C [cj-17, methyl ((1S)-1-(((2S)-2-(5-(4′-(2-((2S)-1-(N-(cyano(dimethyl)carbamimidoyl)-L-valyl)-2-pyrrolidinyl)-1H-imidazol-5-yl)-4-biphenylyl)-1H-imidazol-2-yl)-1-pyrrolidinyl)carbonyl)-2-methylpropyl)carbamate] | 0.001 to 0.999 |
| COC(=O)N[C@H](C(=O)N1CCC[C@H]1c1ncc(-c2ccc(-c3ccc(-c4cnc([C@@H]5CCCN5C(=O)[C@H](NC(=O)OC)c5ccccc5)[nH]4)c(F)c3)cc2F)[nH]1)C(C)C [Example D60, methyl ((1S)-1-(((2S)-2-(5-(3,3′-difluoro-4′-(2-((2S)-1-((2R)-2-((methoxycarbonyl)amino)-2-phenylacetyl)-2-pyrrolidinyl)-1H-imidazol-5-yl)-4-biphenylyl)-1H-imidazol-2-yl)-1-pyrrolidinyl)carbonyl)-2-methylpropyl) carbamate] | 0.001 to 0.999 |
| O=C1CN(C(C(=O)N2CCC[C@H]2c2ncc(-c3ccc(-c4ccc(-c5c[nH]c([C@@H]6CCCN6C(=O)[C@H]6CCCO6)n5)cc4)cc3)[nH]2)c2ccccc2)CCN1 (stereo partly drawn) [Example 103-8, 4-(2-oxo-1-phenyl-2-((2S)-2-(5-(4′-(2-((2S)-1-((2R)-tetrahydro-2-furanylcarbonyl)-2-pyrrolidinyl)-1H-imidazol-4-yl)-4-biphenylyl)-1H-imidazol-2-yl)-1-pyrrolidinyl)ethyl)-2-piperazinone] | 0.001 to 0.999 |
| COC(=O)N[C@@H](C(=O)N1CCC[C@H]1c1ncc(-c2ccc(-c3ccc(-c4cnc([C@@H]5CCCN5C(=O)[C@@H]5CC(F)(F)CN5)[nH]4)cc3)cc2)[nH]1)c1ccccc1 [Example 81, methyl ((1R)-2-((2S)-2-(5-(4′(2-((2S)-1-(4,4-difluoro-L-prolyl)-2-pyrrolidinyl)-1H-imidazol-5-yl)-4-biphenylyl)-1H-imidazol-2-yl)-1-pyrrolidinyl)-2-oxo-1-phenylethyl)carbamate] | 0.001 to 0.999 |
